The results in this text go back to ChEMBL document CHEMBL4665916, “Human Insulin-like Peptide 5 (INSL5). Identification of a Simplified Version of Two-Chain Analog A13” (ACS Med Chem Lett, 2020).

Bridge positions count the residues as written; N and C are the ends. Peptide text beside a SMILES is read from it. I, II: the chains in the order shown.

In test [1] the target is T1, Relaxin-3 receptor 2 (Homo sapiens, UniProt Q8TDU9). The experiment in a line: Agonist activity at human RXFP4 transfected in CHO-K1 cells co-transfected with pCRE-beta-galactosidase reporter plasmid assessed as inhibition of forskolin-induced cAMP accumulation measured after 6 hrs by beta-galactosidase reporter gene assay. Format: functional, cell-based. (In general: Changes in cAMP serve as a functional read-out for many G protein-coupled receptors.)

Test [2] addresses T1, Relaxin-3 receptor 2. The experiment in a line: Competitive binding affinity to human RXFP4 receptor transfected in CHO-K1 cells in presence of europium-labeled Eu(A)-R3/I5 by fluorometric analysis. Format: cell-based.

T1 sequence (Q8TDU9 whole entry): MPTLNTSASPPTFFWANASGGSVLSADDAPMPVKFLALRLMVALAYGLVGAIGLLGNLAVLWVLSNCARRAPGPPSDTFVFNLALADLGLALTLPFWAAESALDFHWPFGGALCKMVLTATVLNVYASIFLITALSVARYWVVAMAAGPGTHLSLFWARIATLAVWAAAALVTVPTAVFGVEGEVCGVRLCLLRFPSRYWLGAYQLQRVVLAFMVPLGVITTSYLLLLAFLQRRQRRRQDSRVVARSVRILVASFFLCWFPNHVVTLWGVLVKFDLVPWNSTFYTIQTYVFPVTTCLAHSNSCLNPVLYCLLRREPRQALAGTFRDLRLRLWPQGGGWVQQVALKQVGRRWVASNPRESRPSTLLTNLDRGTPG

For `CC[C@H](C)[C@@H]1NC(=O)[C@H](Cc2ccc(O)cc2)NC(=O)[C@H]([C@@H](C)CC)NC(=O)[C@H](C(C)C)NC(=O)[C@H]([C@@H](C)O)NC(=O)[C@H](CCCNC(=N)N)NC(=O)[C@H]([C@@H](C)CC)NC(=O)[C@H](Cc2ccc(O)cc2)NC(=O)[C@H](CCC(=O)O)NC(=O)[C@H](CC(C)C)NC(=O)CNC(=O)[C@@H](N)CSSC[C@H](N)C(=O)N[C@@H]([C@@H](C)O)C(=O)N[C@@H](CC(=O)O)C(=O)NCC(=O)N[C@@H](C)C(=O)N[C@@H](CO)C(=O)N[C@@H](CCSC)C(=O)N[C@@H](CCCCN)C(=O)N[C@@H](CC(=O)O)C(=O)N[C@@H](CC(C)C)C(=O)N[C@@H](CO)C(=O)N[C@@H](C)C(=O)N[C@@H](CC(C)C)C(=O)N[C@H](C(=O)O)CSSC[C@@H](C(=O)N[C@@H](C)C(=O)N[C@@H](CO)C(=O)N[C@@H](CO)C(=O)N[C@@H](CCCNC(=N)N)C(=O)N[C@@H](Cc2c[nH]c3ccccc23)C(=O)O)NC1=O` (I: H-CGLEYIRTVIYICASSRW-OH / II: H-CTDGASMKDLSALC-OH; disulfide I:1-II:1, I:13-II:14), the EC50 (in general, the concentration giving half of the maximal effect) on Relaxin-3 receptor 2 [1] is 8.32 nM.
In the case of `CC[C@H](C)[C@@H]1NC(=O)[C@H](Cc2ccc(O)cc2)NC(=O)[C@H]([C@@H](C)CC)NC(=O)[C@H](C(C)C)NC(=O)[C@H]([C@@H](C)O)NC(=O)[C@H](CCCNC(=N)N)NC(=O)[C@H]([C@@H](C)CC)NC(=O)[C@H](Cc2ccc(O)cc2)NC(=O)[C@H](CCC(=O)O)NC(=O)[C@H](CC(C)C)NC(=O)CNC(=O)[C@@H](NC(=O)[C@H](CC(C)C)NC(=O)[C@@H](N)CCCNC(=N)N)CSSC[C@H](N)C(=O)N[C@@H]([C@@H](C)O)C(=O)N[C@@H](CC(=O)O)C(=O)NCC(=O)N[C@@H](C)C(=O)N[C@@H](CO)C(=O)N[C@@H](CCSC)C(=O)N[C@@H](CCCCN)C(=O)N[C@@H](CC(=O)O)C(=O)N[C@@H](CC(C)C)C(=O)N[C@@H](CO)C(=O)N[C@@H](C)C(=O)N[C@@H](CC(C)C)C(=O)N[C@H](C(=O)O)CSSC[C@@H](C(=O)N[C@@H](C)C(=O)N[C@@H](CO)C(=O)N[C@@H](CO)C(=O)N[C@@H](CCCNC(=N)N)C(=O)N[C@@H](Cc2c[nH]c3ccccc23)C(=O)O)NC1=O` (I: H-RLCGLEYIRTVIYICASSRW-OH / II: H-CTDGASMKDLSALC-OH; disulfide I:3-II:1, I:15-II:14), at Relaxin-3 receptor 2 [2], the Ki – broadly, a measure of affinity in units of concentration, obtained from inhibition or displacement – was 50.1 nM. Further, on Relaxin-3 receptor 2 [1], the concentration giving a half-maximal response (EC50) was 14.1 nM.
The like results for `CC[C@H](C)[C@@H]1NC(=O)[C@H](Cc2ccc(O)cc2)NC(=O)[C@H]([C@@H](C)CC)NC(=O)[C@H](C(C)C)NC(=O)[C@H]([C@@H](C)O)NC(=O)[C@H](CCCNC(=N)N)NC(=O)[C@H]([C@@H](C)CC)NC(=O)[C@H](Cc2ccc(O)cc2)NC(=O)[C@H](CCC(=O)O)NC(=O)[C@H](CC(C)C)NC(=O)CNC(=O)[C@@H](NC(=O)[C@H](CC(C)C)NC(=O)[C@H](CCCNC(=N)N)NC(=O)[C@@H](NC(=O)[C@@H](N)CO)C(C)C)CSSC[C@H](N)C(=O)N[C@@H]([C@@H](C)O)C(=O)N[C@@H](CC(=O)O)C(=O)NCC(=O)N[C@@H](C)C(=O)N[C@@H](CO)C(=O)N[C@@H](CCSC)C(=O)N[C@@H](CCCCN)C(=O)N[C@@H](CC(=O)O)C(=O)N[C@@H](CC(C)C)C(=O)N[C@@H](CO)C(=O)N[C@@H](C)C(=O)N[C@@H](CC(C)C)C(=O)N[C@H](C(=O)O)CSSC[C@@H](C(=O)N[C@@H](C)C(=O)N[C@@H](CO)C(=O)N[C@@H](CO)C(=O)N[C@@H](CCCNC(=N)N)C(=O)N[C@@H](Cc2c[nH]c3ccccc23)C(=O)O)NC1=O` (I: H-SVRLCGLEYIRTVIYICASSRW-OH / II: H-CTDGASMKDLSALC-OH; disulfide I:5-II:1, I:17-II:14) were, in that order, 34.7 nM and 11 nM.
